Assay results published in paper PMC5218480 (PLoS ONE, 2017).

Test system: MV-4-11 cells
Experiment: Gene expression microarray analysis (Affymetrix PrimeView) and GSEA
Type: cell-based, human
Design: RFU PODN (11730768_x_at) / Fold change /veh PODN (11730768_x_at) / RFU LINC00158 (11744669_a_at) / Fold change /veh LINC00158 (11744669_a_at) / RFU DUSP10 (11751237_a_at) / Fold change /veh DUSP10 (11751237_a_at) / RFU ID3 (11757404_x_at) / Fold change /veh ID3 (11757404_x_at) / RFU PLEKHG5 (11737974_s_at) / Fold change /veh PLEKHG5 (11737974_s_at) / RFU LRRC4B (11730491_at) / Fold change /veh LRRC4B (11730491_at) / RFU GIMAP4 (11747438_a_at) / Fold change /veh GIMAP4 (11747438_a_at) / RFU KRT8 (11758183_x_at) / Fold change /veh KRT8 (11758183_x_at) / RFU CNN1 (11734310_a_at) / Fold change /veh CNN1 (11734310_a_at) / RFU VPS37D (11726825_at) / Fold change /veh VPS37D (11726825_at) / RFU C10orf10 (11716522_x_at) / Fold change /veh C10orf10 (11716522_x_at) / RFU KIR2DL2 /// KIR2DL4 /// KIR2DL5A /// KIR2DL5B /// KIR2DS1 /// KIR2DS2 /// KIR2DS3 /// KIR2DS4 /// KIR3DL3 /// KIR3DL3 /// KIR3DS1 (11738374_at) / Fold change /veh KIR2DL2 /// KIR2DL4 /// KIR2DL5A /// KIR2DL5B /// KIR2DS1 /// KIR2DS2 /// KIR2DS3 /// KIR2DS4 /// KIR3DL3 /// KIR3DL3 /// KIR3DS1 (11738374_at) / RFU C1QL1 (11718748_at) / Fold change /veh C1QL1 (11718748_at) / RFU TMPRSS4 (11747572_a_at) / Fold change /veh TMPRSS4 (11747572_a_at) / RFU HAMP (11756126_x_at) / Fold change /veh HAMP (11756126_x_at) / RFU RNFT2 (11725882_a_at) / Fold change /veh RNFT2 (11725882_a_at) / RFU NR4A2 (11747474_a_at) / Fold change /veh NR4A2 (11747474_a_at) / RFU ABCC12 (11746883_a_at) / Fold change /veh ABCC12 (11746883_a_at) / RFU TMEM136 (11760407_x_at) / Fold change /veh TMEM136 (11760407_x_at) / RFU CLDN22 /// WWC2 (11732394_at) / Fold change /veh CLDN22 /// WWC2 (11732394_at) / RFU HLA-DPB1 (11760878_x_at) / Fold change /veh HLA-DPB1 (11760878_x_at) / RFU SPINT1 (11716480_a_at) / Fold change /veh SPINT1 (11716480_a_at) / RFU GAP43 (11754022_s_at) / Fold change /veh GAP43 (11754022_s_at) / RFU A4GNT (11735810_at) / Fold change /veh A4GNT (11735810_at) / RFU PRB3 (11715151_x_at) / Fold change /veh PRB3 (11715151_x_at) / RFU TUBB4B (11761932_at) / Fold change /veh TUBB4B (11761932_at) / RFU CAPN14 (11732068_a_at) / Fold change /veh CAPN14 (11732068_a_at) / RFU TMCC2 (11721928_a_at) / Fold change /veh TMCC2 (11721928_a_at) / RFU IRGQ (11745062_a_at) / Fold change /veh IRGQ (11745062_a_at) / RFU FAM174B (11720279_a_at) / Fold change /veh FAM174B (11720279_a_at) / RFU TMPRSS4 (11748680_a_at) / Fold change /veh TMPRSS4 (11748680_a_at) / RFU FAM212B (11763350_a_at) / Fold change /veh FAM212B (11763350_a_at) / RFU PLEKHG5 (11743358_a_at) / Fold change /veh PLEKHG5 (11743358_a_at) / RFU ZSCAN30 (11745921_a_at) / Fold change /veh ZSCAN30 (11745921_a_at) / RFU CMKLR1 (11741424_a_at) / Fold change /veh CMKLR1 (11741424_a_at) / RFU LOC101060620 /// MAPK8IP1 (11723275_at) / Fold change /veh LOC101060620 /// MAPK8IP1 (11723275_at) / RFU SPTSSB (11747773_x_at) / Fold change /veh SPTSSB (11747773_x_at) / RFU PRSS12 (11739890_at) / Fold change /veh PRSS12 (11739890_at) / RFU BIN1 (11741810_x_at) / Fold change /veh BIN1 (11741810_x_at) / RFU WNT11 (11732464_a_at) / Fold change /veh WNT11 (11732464_a_at) / RFU C10orf10 (11716521_a_at) / Fold change /veh C10orf10 (11716521_a_at) / RFU C5orf56 (11738089_at) / Fold change /veh C5orf56 (11738089_at) / RFU CYB561 (11721691_x_at) / Fold change /veh CYB561 (11721691_x_at) / RFU ANKRD19P (11752326_a_at) / Fold change /veh ANKRD19P (11752326_a_at) / RFU OR2T12 /// OR2T33 /// OR2T8 (11738714_s_at) / Fold change /veh OR2T12 /// OR2T33 /// OR2T8 (11738714_s_at) / RFU VCAN (11748164_a_at) / Fold change /veh VCAN (11748164_a_at) / RFU JSRP1 (11732532_at) / Fold change /veh JSRP1 (11732532_at) / RFU KRTAP10-11 (11738290_x_at) / Fold change /veh KRTAP10-11 (11738290_x_at) / RFU MYO3A (11730013_a_at) / Fold change /veh MYO3A (11730013_a_at) / RFU EBF3 (11725865_a_at) / Fold change /veh EBF3 (11725865_a_at) / RFU CAMK2N1 (11719241_x_at) / Fold change /veh CAMK2N1 (11719241_x_at) / RFU C5orf56 (11738088_a_at) / Fold change /veh C5orf56 (11738088_a_at) / RFU OLFML3 (11715873_a_at) / Fold change /veh OLFML3 (11715873_a_at) / RFU LOC100653217 /// NTM (11731650_a_at) / Fold change /veh LOC100653217 /// NTM (11731650_a_at) / RFU MAPK11 (11762145_a_at) / Fold change /veh MAPK11 (11762145_a_at) / RFU FIZ1 (11724087_x_at) / Fold change /veh FIZ1 (11724087_x_at) / RFU OASL (11726364_x_at) / Fold change /veh OASL (11726364_x_at) / RFU SOX15 (11748057_x_at) / Fold change /veh SOX15 (11748057_x_at) / RFU CD79A (11719716_a_at) / Fold change /veh CD79A (11719716_a_at) / RFU HIST1H1D (11736915_at) / Fold change /veh HIST1H1D (11736915_at) / RFU CASKIN2 (11723855_a_at) / Fold change /veh CASKIN2 (11723855_a_at) / RFU LOC730098 (11760151_x_at) / Fold change /veh LOC730098 (11760151_x_at) / RFU OR4N2 (11742367_at) / Fold change /veh OR4N2 (11742367_at) / RFU PRRT2 (11749266_a_at) / Fold change /veh PRRT2 (11749266_a_at) / RFU SNX32 (11753110_a_at) / Fold change /veh SNX32 (11753110_a_at) / RFU CDHR5 (11726645_a_at) / Fold change /veh CDHR5 (11726645_a_at) / RFU RCAN1 (11760418_a_at) / Fold change /veh RCAN1 (11760418_a_at) / RFU FAM167A (11723789_a_at) / Fold change /veh FAM167A (11723789_a_at) / RFU FAM26E (11764081_at) / Fold change /veh FAM26E (11764081_at) / RFU ISYNA1 (11749810_s_at) / Fold change /veh ISYNA1 (11749810_s_at) / RFU ACY1 (11761880_at) / Fold change /veh ACY1 (11761880_at) / RFU 11764098_at / Fold change /veh 11764098_at / RFU SAMD14 (11745864_x_at) / Fold change /veh SAMD14 (11745864_x_at) / RFU NPB (11741838_a_at) / Fold change /veh NPB (11741838_a_at) / RFU TMPRSS6 (11731388_a_at) / Fold change /veh TMPRSS6 (11731388_a_at) / RFU KRTAP10-2 (11738614_at) / Fold change /veh KRTAP10-2 (11738614_at) / RFU ARHGAP8 /// PRR5-ARHGAP8 (11727945_x_at) / Fold change /veh ARHGAP8 /// PRR5-ARHGAP8 (11727945_x_at) / RFU KRTAP5-7 /// NADSYN1 (11734609_at) / Fold change /veh KRTAP5-7 /// NADSYN1 (11734609_at) / RFU RASL12 (11751679_a_at) / Fold change /veh RASL12 (11751679_a_at) / RFU CDKN2B (11736163_a_at) / Fold change /veh CDKN2B (11736163_a_at) / RFU PRF1 (11729649_at) / Fold change /veh PRF1 (11729649_at) / RFU, ZNF638 /// ZNF638-IT1 / Fold change vs veh, ZNF638 /// ZNF638-IT1 / RFU, PANK3 / Fold change vs veh, PANK3 / RFU, SH3YL1 / Fold change vs veh, SH3YL1 / RFU, ZEB2 / Fold change vs veh, ZEB2 / RFU, NRIP1 / Fold change vs veh, NRIP1 / RFU, PTTG1IP / Fold change vs veh, PTTG1IP / RFU, CAPN2 / Fold change vs veh, CAPN2 / RFU, MED14 / Fold change vs veh, MED14 / RFU, SNORA58 / Fold change vs veh, SNORA58 / RFU, C1orf63 / Fold change vs veh, C1orf63 / RFU, LRRFIP1 / Fold change vs veh, LRRFIP1 / RFU, NDUFAF7 / Fold change vs veh, NDUFAF7 / RFU, SLC12A2 / Fold change vs veh, SLC12A2 / RFU, IBTK / Fold change vs veh, IBTK / RFU, ESF1 / Fold change vs veh, ESF1 / Fold change vs veh, TMEM50B / RFU, TAOK1 / Fold change vs veh, TAOK1 / RFU, ACBD3 / Fold change vs veh, ACBD3 / RFU, TMA16 / Fold change vs veh, TMA16 / RFU, RWDD3 / Fold change vs veh, RWDD3 / RFU, BCAT1 / Fold change vs veh, BCAT1 / RFU, EDEM3 / Fold change vs veh, EDEM3 / RFU, TMEM33 / Fold change vs veh, TMEM33 / RFU, WDR75 / Fold change vs veh, WDR75 / RFU, AHCTF1 / Fold change vs veh, AHCTF1 / RFU, TFRC / Fold change vs veh, TFRC / RFU, ZDHHC17 / Fold change vs veh, ZDHHC17 / RFU, NOM1 / Fold change vs veh, NOM1 / RFU, ARL8B / Fold change vs veh, ARL8B / RFU, ZBTB11 / Fold change vs veh, ZBTB11 / RFU, TAMM41 / Fold change vs veh, TAMM41 / RFU, KIAA1704 /// LOC100996395 / Fold change vs veh, KIAA1704 /// LOC100996395 / RFU, ING1 / Fold change vs veh, ING1 / RFU, TRMT61B / Fold change vs veh, TRMT61B / RFU, FUBP3 / Fold change vs veh, FUBP3 / RFU, TP53 / Fold change vs veh, TP53 / RFU, TNKS2 / Fold change vs veh, TNKS2 / RFU, ZFP14 / Fold change vs veh, ZFP14 / RFU, ACTR2 / Fold change vs veh, ACTR2 / RFU, PPP3R1 / Fold change vs veh, PPP3R1 / RFU, PIK3R1 / Fold change vs veh, PIK3R1 / RFU, HNRNPA1 / Fold change vs veh, HNRNPA1 / RFU, RNF170 / Fold change vs veh, RNF170 / RFU, ZNF28 / Fold change vs veh, ZNF28 / RFU, RNGTT / Fold change vs veh, RNGTT / RFU, OGT / Fold change vs veh, OGT / RFU, BRD1 / Fold change vs veh, BRD1 / RFU, MARS / Fold change vs veh, MARS / RFU, ZNF655 / Fold change vs veh, ZNF655 / RFU, FAHD1 / Fold change vs veh, FAHD1 / RFU, BDP1 / Fold change vs veh, BDP1 / RFU, LRRCC1 / Fold change vs veh, LRRCC1 / RFU, ARID1A / Fold change vs veh, ARID1A / RFU, ZNF146 / Fold change vs veh, ZNF146 / RFU, ZNF330 / Fold change vs veh, ZNF330 / RFU, GPN3 / Fold change vs veh, GPN3 / RFU, C9orf123 / Fold change vs veh, C9orf123 / RFU, N4BP2L2 / Fold change vs veh, N4BP2L2 / RFU, ARFIP1 / Fold change vs veh, ARFIP1 / RFU, FAM179B / Fold change vs veh, FAM179B / RFU, BCL10 / Fold change vs veh, BCL10 / RFU, UHRF1BP1L / Fold change vs veh, UHRF1BP1L / RFU, BET1 / Fold change vs veh, BET1 / RFU, CNOT2 / Fold change vs veh, CNOT2 / RFU, ZNF268 / Fold change vs veh, ZNF268 / Fold change vs veh, ZNF507 / RFU, DGCR2 / Fold change vs veh, DGCR2 / RFU, WDSUB1 / Fold change vs veh, WDSUB1 / Fold change vs veh, HSP90B1 /// MIR3652 / RFU, ADSS / Fold change vs veh, ADSS / RFU, GK / Fold change vs veh, GK / RFU, ZNF148 / Fold change vs veh, ZNF148 / RFU, TAF9 / Fold change vs veh, TAF9 / RFU, SLC1A5 / Fold change vs veh, SLC1A5 / RFU, SLMO2 / Fold change vs veh, SLMO2 / RFU, ABCC4 / Fold change vs veh, ABCC4 / RFU, LOC101060439 /// RAP1B / Fold change vs veh, LOC101060439 /// RAP1B / RFU, RFX7 / Fold change vs veh, RFX7 / RFU, GTPBP10 / Fold change vs veh, GTPBP10 / RFU, CNEP1R1 / Fold change vs veh, CNEP1R1 / RFU, BIVM-ERCC5 /// ERCC5 / Fold change vs veh, BIVM-ERCC5 /// ERCC5 / RFU, ILF3 / Fold change vs veh, ILF3 / RFU 11762660_at / Fold change /veh 11762660_at / RFU VCAN (11757783_s_at) / Fold change /veh VCAN (11757783_s_at) / RFU DDX43 (11728927_at) / Fold change /veh DDX43 (11728927_at) / RFU KRT8 (11758188_x_at) / Fold change /veh KRT8 (11758188_x_at) / RFU NKD1 (11759106_at) / Fold change /veh NKD1 (11759106_at) / RFU SRD5A1 (11742802_a_at) / Fold change /veh SRD5A1 (11742802_a_at) / RFU TPSAB1 /// TPSB2 (11721975_s_at) / Fold change /veh TPSAB1 /// TPSB2 (11721975_s_at) / RFU GSTM3 (11746129_a_at) / Fold change /veh GSTM3 (11746129_a_at) / RFU IL23R (11737362_x_at) / Fold change /veh IL23R (11737362_x_at) / RFU TMEM51 (11727254_a_at) / Fold change /veh TMEM51 (11727254_a_at) / RFU PIWIL2 (11732686_x_at) / Fold change /veh PIWIL2 (11732686_x_at) / RFU ORM1 (11744905_x_at) / Fold change /veh ORM1 (11744905_x_at) / RFU CCDC152 (11743942_at) / Fold change /veh CCDC152 (11743942_at) / RFU ECM1 (11717891_a_at) / Fold change /veh ECM1 (11717891_a_at) / RFU IL23R (11748794_a_at) / Fold change /veh IL23R (11748794_a_at) / RFU TNFAIP8L3 (11732012_x_at) / Fold change /veh TNFAIP8L3 (11732012_x_at) / RFU MBOAT4 (11741988_at) / Fold change /veh MBOAT4 (11741988_at) / RFU 11764193_at / Fold change /veh 11764193_at / RFU TMEM53 (11763286_at) / Fold change /veh TMEM53 (11763286_at) / RFU MAGEB2 (11727129_at) / Fold change /veh MAGEB2 (11727129_at) / RFU TMEM200A (11744735_a_at) / Fold change /veh TMEM200A (11744735_a_at) / RFU CCDC152 (11751479_a_at) / Fold change /veh CCDC152 (11751479_a_at) / RFU FAM211A (11726209_a_at) / Fold change /veh FAM211A (11726209_a_at) / RFU RGS16 (11746705_a_at) / Fold change /veh RGS16 (11746705_a_at) / RFU VCAN (11755009_s_at) / Fold change /veh VCAN (11755009_s_at) / RFU RHOB (11743442_s_at) / Fold change /veh RHOB (11743442_s_at) / RFU RGS16 (11720943_a_at) / Fold change /veh RGS16 (11720943_a_at) / RFU RGS16 (11720944_at) / Fold change /veh RGS16 (11720944_at) / RFU, VPS4B / Fold change vs veh, VPS4B / RFU, CREB1 / Fold change vs veh, CREB1 / RFU, DNAJC13 / Fold change vs veh, DNAJC13 / RFU, GNAQ / Fold change vs veh, GNAQ / RFU, CDK5R1 / Fold change vs veh, CDK5R1 / RFU, ZRANB3 / Fold change vs veh, ZRANB3 / RFU, CUL4A / Fold change vs veh, CUL4A / RFU, CCNY / Fold change vs veh, CCNY / RFU, UFL1 / Fold change vs veh, UFL1 / RFU, COG3 / Fold change vs veh, COG3 / RFU, DIAPH2 / Fold change vs veh, DIAPH2 / RFU, SKA2 / Fold change vs veh, SKA2 / RFU, AFF3 / Fold change vs veh, AFF3 / RFU, LMF1 / Fold change vs veh, LMF1 / RFU, IPO11 / Fold change vs veh, IPO11 / RFU, DFFB / Fold change vs veh, DFFB / RFU, FOXP1 / Fold change vs veh, FOXP1 / RFU, CARD8 / Fold change vs veh, CARD8 / RFU, STRN3 / Fold change vs veh, STRN3 / RFU, ADK / Fold change vs veh, ADK / RFU, RASSF2 / Fold change vs veh, RASSF2 / RFU, WIPF1 / Fold change vs veh, WIPF1 / RFU, LARP1B / Fold change vs veh, LARP1B / RFU, RASA1 / Fold change vs veh, RASA1 / RFU, RB1 / Fold change vs veh, RB1 / RFU, PPFIA1 / Fold change vs veh, PPFIA1 / RFU, MAT2A / Fold change vs veh, MAT2A / RFU, CCT5 / Fold change vs veh, CCT5 / RFU, WDR92 / Fold change vs veh, WDR92 / RFU, CUX1 / Fold change vs veh, CUX1 / RFU, TTC7A / Fold change vs veh, TTC7A / RFU, TMEM135 / Fold change vs veh, TMEM135 / RFU, DEPTOR / Fold change vs veh, DEPTOR / RFU, CPM / Fold change vs veh, CPM / RFU, DNAJB6 / Fold change vs veh, DNAJB6 / RFU, CACNA2D3 / Fold change vs veh, CACNA2D3 / RFU, DTX4 / Fold change vs veh, DTX4 / RFU, TFCP2 / Fold change vs veh, TFCP2 / RFU, GMCL1 /// GMCL1P1 / Fold change vs veh, GMCL1 /// GMCL1P1 / RFU, AEBP2 / Fold change vs veh, AEBP2 / RFU, SNHG1 /// SNORD22 /// SNORD25 /// SNORD26 /// SNORD27 /// SNORD28 /// SNORD29 /// SNORD31 / Fold change vs veh, SNHG1 /// SNORD22 /// SNORD25 /// SNORD26 /// SNORD27 /// SNORD28 /// SNORD29 /// SNORD31 / Fold change (Aza/veh), C12orf56 (ProbeSet 11735607_a_at) / Fold change (ACY-1035/veh), C12orf56 (ProbeSet 11735607_a_at) / Fold change (Aza/veh), FGFR1OP (ProbeSet 11751329_s_at) / Fold change (ACY-1035/veh), FGFR1OP (ProbeSet 11751329_s_at) / Fold change (Aza/veh), VPS36 (ProbeSet 11739960_a_at) / Fold change (ACY-1035/veh), VPS36 (ProbeSet 11739960_a_at) / RFU SYPL1 (11715823_x_at) / Fold change /veh SYPL1 (11715823_x_at) / RFU IGFBP7 (11715501_s_at) / Fold change /veh IGFBP7 (11715501_s_at) / RFU REEP3 (11722064_at) / Fold change /veh REEP3 (11722064_at) / RFU IGLL1 (11728026_x_at) / Fold change /veh IGLL1 (11728026_x_at): dose or concentration left out as unconfirmed
Settings: MV-4-11 cells, 48 hours

## Nc1ncn([C@@H]2O[C@H](CO)[C@@H](O)[C@H]2O)c(=O)n1 [azacitidine]
  RFU VCAN (11757783_s_at): 10.94 RFU
